Converted amounts (≈) assume the structure as drawn.

As usually defined, the GI50 is the concentration at which growth is held to half of that of the control. As usually defined, the MIC is the lowest concentration that inhibits growth of the organism. A word on the IC50: it is the midpoint of a concentration-inhibition curve.

The first data set concerns 3T3 cells. Kind of data set: Cell growth inhibition bioassay (sulforhodamine B). It is filed as cell-based, mouse. The settings on record: Mus musculus, NIH3T3; 48 h, SRB; read-out: GI50 in indicated cell line: 3T3. The essentials:
(§1)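 Cells were exposed to compound alongside matched solvent controls, then stained with sulforhodamine B. Percent growth inhibition was calculated from dye absorbance against the control.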
For the compound `C(=N/Nc1ncnc2sc3c(c12)CCCC3)/c1ccccc1` [II-01], the GI50 is 6.7 µg/mL (≈ 21.7 µM).

For `O=[N+]([O-])c1ccc(/C=N\Nc2ncnc3sc4c(c23)CCCC4)cc1` [II-22], the GI50 is > 62.5 µg/mL.

Another data set concerns M. tuberculosis MDR. The experiment in a line: Anti-tuberculosis bioassay (tetrazolium microplate MIC). The class given is cell-based. Particulars: Mycobacterium tuberculosis, read-out: Mycobacterium MIC MDR.
As to `C(=N/Nc1ncnc2sc3c(c12)CCCC3)/c1ccccc1` [II-01], the minimal inhibitory concentration (MIC) was determined as 6.25 µg/mL (≈ 20.3 µM).

As to `O=[N+]([O-])c1ccc(/C=N\Nc2ncnc3sc4c(c23)CCCC4)cc1` [II-22], the MIC is > 25 µg/mL.

System in another data set: not listed separately
Kind of data set: Toxicity to peritoneal macrophages (Trypan Blue count). It is filed as cell-based, BALB/C mouse. Particulars: BALB/C, mouse, Cytotoxicity Macrophages IC50.
Regarding `C(=N/Nc1ncnc2sc3c(c12)CCCC3)/c1ccccc1` [II-01], inhibition was half-maximal at 8.7 µM (IC50 at 48 h).

`O=[N+]([O-])c1ccc(/C=N\Nc2ncnc3sc4c(c23)CCCC4)cc1` [II-22] gave a half-maximal inhibitory concentration (IC50) at 48 h of 70.4 µM.

Still in this data set, the particulars now being: BALB/C, mouse, IC50 Cytotoxicity Against Macrophages.
Regarding `O=[N+]([O-])c1ccc(/C=N\Nc2ncnc3sc4c(c23)CCCC4)cc1` [II-22], the concentration for half-maximal inhibition (IC50) at 48 h is > 10 µM.

The next data set concerns axenic amastigotes of L. amazonensis (strain MHOM/BR/76/LTB-012).
Experiment: not given
The settings on record: Table 8b.
Consider `C(=N/Nc1ncnc2sc3c(c12)CCCC3)/c1ccccc1` [II-01], for which the “Selectivity Index” value worked out at 0.6.

Consider `O=[N+]([O-])c1ccc(/C=N\Nc2ncnc3sc4c(c23)CCCC4)cc1` [II-22], for which the “Selectivity Index” value is recorded as 5.2.

The next data set concerns VERO cells. The experiment in a line: Cell growth inhibition bioassay (sulforhodamine B). It is filed as cell-based, African Green Monkey. Particulars: Chlorocebus sabaeus, Vero; 48 h, SRB; read-out: GI50 in indicated cell line: VERO. The method in brief: as §1
As to `C(=N/Nc1ncnc2sc3c(c12)CCCC3)/c1ccccc1` [II-01], the concentration for 50% growth inhibition (GI50) is 5.3 µg/mL (≈ 17.2 µM).

On to `O=[N+]([O-])c1ccc(/C=N\Nc2ncnc3sc4c(c23)CCCC4)cc1` [II-22], for which the GI50 is > 62.5 µg/mL.

A further data set has as its system axenic amastigotes of L. amazonensis (strain MHOM/BR/76/LTB-012). Kind of data set: microbe, parasite or virus in culture. Particulars: Leishmania amazonensis, read-out: IC50 Cytotoxicity Against Amastigotes.
`C(=N/Nc1ncnc2sc3c(c12)CCCC3)/c1ccccc1` [II-01]: the IC50 worked out at 3.2 µM.

In the case of `O=[N+]([O-])c1ccc(/C=N\Nc2ncnc3sc4c(c23)CCCC4)cc1` [II-22], the IC50 worked out at 33.8 µM.

The same data set, now with this note: Leishmania amazonensis, read-out: L. amazonensis IC50.
Take `C(=N/Nc1ncnc2sc3c(c12)CCCC3)/c1ccccc1` [II-01]: the IC50 was determined as 13.5 µM.

As to `O=[N+]([O-])c1ccc(/C=N\Nc2ncnc3sc4c(c23)CCCC4)cc1` [II-22], the half-inhibitory concentration (IC50) came to 13.6 µM.

In the next data set the test system is DU145 cells. Kind of data set: Cell growth inhibition bioassay (sulforhodamine B). The class given is cell-based, human. The settings on record: Homo sapiens, DU-145; 48 h, SRB; read-out: GI50 in indicated cell line: DU145. The essentials: (§2)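 SRB colorimetric read-out; % growth inhibition vs solvent control. Human lines: MCF-7 (breast adenocarcinoma), DU145 (prostate carcinoma), PC3 (prostate adenocarcinoma), H460 (large cell lung cancer).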
With `C(=N/Nc1ncnc2sc3c(c12)CCCC3)/c1ccccc1` [II-01], the concentration for 50% growth inhibition (GI50) was found to be 6.2 µg/mL (≈ 20.1 µM).

Consider `O=[N+]([O-])c1ccc(/C=N\Nc2ncnc3sc4c(c23)CCCC4)cc1` [II-22], for which the GI50 is > 62.5 µg/mL.

For a further data set, the system named is HT-29 cells. Kind of data set: Cell growth inhibition bioassay (sulforhodamine B). The settings on record: Homo sapiens, HT-29; 48 h, SRB; read-out: GI50 in indicated cell line: HT-29. It is filed as cell-based, human. The essentials: as §1
Turning to `C(=N/Nc1ncnc2sc3c(c12)CCCC3)/c1ccccc1` [II-01], the concentration for 50% growth inhibition (GI50) stood at 3.8 µg/mL (≈ 12.3 µM).

With `O=[N+]([O-])c1ccc(/C=N\Nc2ncnc3sc4c(c23)CCCC4)cc1` [II-22], the concentration for 50% growth inhibition (GI50) was > 62.5 µg/mL.

The next data set deals with H460 cells. Kind of data set: Cell growth inhibition bioassay (sulforhodamine B). The class given is cell-based, human. The settings on record: Homo sapiens, NCI-H460; 48 h, SRB; read-out: GI50 in indicated cell line: H460. The essentials: as §1
Consider `C(=N/Nc1ncnc2sc3c(c12)CCCC3)/c1ccccc1` [II-01], for which the 50% growth inhibitory concentration (GI50) stood at 5.6 µg/mL (≈ 18.2 µM).

In the case of `O=[N+]([O-])c1ccc(/C=N\Nc2ncnc3sc4c(c23)CCCC4)cc1` [II-22], the concentration for 50% growth inhibition (GI50) was > 62.5 µg/mL.

Another data set deals with K562 cells. The experiment in a line: Cell growth inhibition bioassay (sulforhodamine B). The class given is cell-based, human. Particulars: Homo sapiens, K562; 48 h, SRB; read-out: GI50 in indicated cell line: K562. The method in brief:
as §1
Regarding `C(=N/Nc1ncnc2sc3c(c12)CCCC3)/c1ccccc1` [II-01], the 50% growth inhibitory concentration (GI50) worked out at 4.1 µg/mL (≈ 13.3 µM).

Consider `O=[N+]([O-])c1ccc(/C=N\Nc2ncnc3sc4c(c23)CCCC4)cc1` [II-22], for which the concentration for 50% growth inhibition (GI50) was > 62.5 µg/mL.

A further data set concerns M-14 cells. Kind of data set: Cell growth inhibition bioassay (sulforhodamine B). The class given is cell-based, human. Particulars: Homo sapiens, M14; 48 h, SRB; read-out: GI50 in indicated cell line: M-14. The method in brief:
as §1
Take `C(=N/Nc1ncnc2sc3c(c12)CCCC3)/c1ccccc1` [II-01]: the 50% growth inhibitory concentration (GI50) was found to be 5.6 µg/mL (≈ 18.2 µM).

On to `O=[N+]([O-])c1ccc(/C=N\Nc2ncnc3sc4c(c23)CCCC4)cc1` [II-22], for which the GI50 was > 62.5 µg/mL.

For another data set, the system named is MCF-7 cells. The experiment in a line: Cell growth inhibition bioassay (sulforhodamine B). It is filed as cell-based, human. Particulars: Homo sapiens, MCF7; 48 h, SRB; read-out: GI50 in indicated cell line: MCF-7. The method in brief: as §2
`C(=N/Nc1ncnc2sc3c(c12)CCCC3)/c1ccccc1` [II-01]: the GI50 came to 3.5 µg/mL (≈ 11.3 µM).

Turning to `O=[N+]([O-])c1ccc(/C=N\Nc2ncnc3sc4c(c23)CCCC4)cc1` [II-22], the GI50 is > 62.5 µg/mL.

System in the next data set: not listed separately
Kind of data set: Cytotoxicity VERO cell (Table 6). Particulars: African green monkey, VERO cells.
In the case of `C(=N/Nc1ncnc2sc3c(c12)CCCC3)/c1ccccc1` [II-01], the IC50 was 11.1 µg/mL (≈ 36 µM).

Another data set relates to M. tuberculosis H37Rv. The experiment in a line: Anti-tuberculosis bioassay (tetrazolium microplate MIC). It is filed as cell-based. Particulars: Mycobacterium tuberculosis, read-out: Mycobacterium MIC H37Rv, Table 5.
For `C(=N/Nc1ncnc2sc3c(c12)CCCC3)/c1ccccc1` [II-01], the MIC worked out at 6.25 µg/mL (≈ 20.3 µM).

Consider `O=[N+]([O-])c1ccc(/C=N\Nc2ncnc3sc4c(c23)CCCC4)cc1` [II-22], for which the minimal inhibitory concentration (MIC) was > 25 µg/mL.

The next data set deals with Trypanosoma cruzi (Tulahuen C4). Kind of data set: In vitro anti-T. cruzi activity (β-galactosidase CPRG colorimetric assay in VERO monolayer). It is filed as cell-based. The settings on record: IC50, VERO/IC50, T. cruzi; Lab B.
With `C(=N/Nc1ncnc2sc3c(c12)CCCC3)/c1ccccc1` [II-01], the “Selectivity Index Lab B” value amounted to 1.8.

Still in this data set, the particulars now being: Trypanosoma cruzi, TULAHUEN, Vero, 120 h, 10 μg/mL of each compound, 120 hours; read-out: T. cruzi Inhib. (%).
Consider `C(=N/Nc1ncnc2sc3c(c12)CCCC3)/c1ccccc1` [II-01], for which the inhibition at 10 µg/mL came to 80.1%.

In the case of `O=[N+]([O-])c1ccc(/C=N\Nc2ncnc3sc4c(c23)CCCC4)cc1` [II-22], the inhibition at 10 µg/mL was 11.6%.

Still in this data set, the particulars now being: Trypanosoma cruzi, TULAHUEN, Vero, Lab A; read-out: T. cruzi IC50 Lab A.
On to `C(=N/Nc1ncnc2sc3c(c12)CCCC3)/c1ccccc1` [II-01], for which the concentration for half-maximal inhibition (IC50) came to 1.9 µg/mL (≈ 6.16 µM).

The data set is the same for the next values; noted with them: Trypanosoma cruzi, TULAHUEN, Vero, Lab B; read-out: T. cruzi IC50 Lab B.
For the compound `C(=N/Nc1ncnc2sc3c(c12)CCCC3)/c1ccccc1` [II-01], the half-inhibitory concentration (IC50) turned out to be 4.4 µg/mL (≈ 14.3 µM).

The same data set, now with this note: Trypanosoma cruzi, TULAHUEN, Vero, Table 2; read-out: IC50 - T. cruzi.
As for `C(=N/Nc1ncnc2sc3c(c12)CCCC3)/c1ccccc1` [II-01], the half-inhibitory concentration (IC50) turned out to be 3.92 µg/mL (≈ 12.7 µM).

The next data set deals with M. tuberculosis H37Rv. The experiment in a line: Conventional aerobic (MABA) culture assay, luminescence MIC. The class given is cell-based, Mycobacterium tuberculosis. The settings on record: Mycobacterium tuberculosis, 168 h; aerobic, 7 days, H37Rv.
Compound `C(=N/Nc1ncnc2sc3c(c12)CCCC3)/c1ccccc1` [II-01] registered a minimum inhibitory concentration (MIC) of 23.4 µg/mL (≈ 75.9 µM).

Turning to `O=[N+]([O-])c1ccc(/C=N\Nc2ncnc3sc4c(c23)CCCC4)cc1` [II-22], the MIC is > 100 µg/mL.

The data set is the same for the next values; noted with them: VERO vs MABA MIC.
In the case of `C(=N/Nc1ncnc2sc3c(c12)CCCC3)/c1ccccc1` [II-01], the “Selectivity Index H37Rv” value came to 0.5.

System in another data set: not listed separately
The experiment in a line: Cytotoxicity on VERO cells (MTT), anti-T. cruzi study. Particulars: African green monkey, VERO cells, Cytotoxicity VERO Lab B, Lab B.
Compound `C(=N/Nc1ncnc2sc3c(c12)CCCC3)/c1ccccc1` [II-01] registered an IC50 of 8 µg/mL (≈ 25.9 µM).

The data set is the same for the next values; noted with them: African green monkey, VERO cells, IC50 - VERO Cytotoxicity, Table 2.
`C(=N/Nc1ncnc2sc3c(c12)CCCC3)/c1ccccc1` [II-01] had a concentration for half-maximal inhibition (IC50) of 29 µg/mL (≈ 94 µM).
